Measured values reported in PubChem BioAssay AID248 (DTP/NCI, 2004).
Several values for one entry are separate records, joined by “and”; a condition that tells them apart may be missing. Identical values can stand only once. Inconclusive results and toxic doses are left out. Rule as the data show it: active = T/C of 150% or more; inactive = T/C below 125%.

Tested on: L1210 leukemia ip in BDF1 mice, survival T/C
Assay: NCI In Vivo Anticancer Drug Screen. Data for tumor model L1210 Leukemia (intraperitoneal) in B6D2F1 (BDF1) mice
Conditions: endpoint: mean survival time, higher = longer survival
Procedure, shortened: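 Transplantable tumor model; survival measured in treated vs vehicle control mice. Value = treated/control.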

[1] = dose: 100.0 mg/kg/injection, schedule: Q04DX003 (ip), vehicle: Klucel (hydroxypropylcellulose) (HPC)
[2] = dose: 100.0 mg/kg/injection, schedule: Q04DX002 (ip), vehicle: Klucel (hydroxypropylcellulose) (HPC)
[3] = dose: 100.0 mg/kg/injection, schedule: Q04DX003 (ip), vehicle: saline with Tween-80
[4] = dose: 200.0 mg/kg/injection, schedule: Q04DX003 (ip), vehicle: saline with Tween-80
[5] = dose: 400.0 mg/kg/injection, schedule: Q04DX003 (ip), vehicle: saline with Tween-80
[6] = dose: 100.0 mg/kg/injection, schedule: Q01DX001 (ip), vehicle: saline
[7] = dose: 200.0 mg/kg/injection, schedule: Q01DX001 (ip), vehicle: saline
[8] = dose: 400.0 mg/kg/injection, schedule: Q01DX001 (ip), vehicle: saline
[9] = dose: 100.0 mg/kg/injection, schedule: Q01DX009 (ip), vehicle: saline with Tween-80
[10] = dose: 100.0 mg/kg/injection, schedule: Q01DX009 (ip), vehicle: saline
[11] = dose: 100.0 mg/kg/injection, schedule: Q04DX002 (ip), vehicle: saline
[12] = dose: 100.0 mg/kg/injection, schedule: Q04DX003 (ip), vehicle: saline
[13] = dose: 200.0 mg/kg/injection, schedule: Q01DX009 (ip), vehicle: saline
[14] = dose: 200.0 mg/kg/injection, schedule: Q04DX002 (ip), vehicle: saline
[15] = dose: 200.0 mg/kg/injection, schedule: Q04DX003 (ip), vehicle: saline
[16] = dose: 400.0 mg/kg/injection, schedule: Q01DX009 (ip), vehicle: saline
[17] = dose: 400.0 mg/kg/injection, schedule: Q04DX003 (ip), vehicle: saline

Measured: T/C

COc1ccc(/C=C/c2ccc3ccccc3[n+]2C)c(OC)c1OC
inactive: dose: 5.0 mg/kg/injection, schedule: Q01DX009 (oral), vehicle: carboxymethylcellulose (CMC) 104 % of control | dose: 5.0 mg/kg/injection, schedule: Q04DX003 (ip), vehicle: saline with Tween-80 106 % of control | dose: 10.0 mg/kg/injection, schedule: Q01DX009 (oral), vehicle: carboxymethylcellulose (CMC) 98 % of control | dose: 10.0 mg/kg/injection, schedule: Q04DX003 (ip), vehicle: saline with Tween-80 114 % of control | dose: 20.0 mg/kg/injection, schedule: Q01DX009 (oral), vehicle: carboxymethylcellulose (CMC) 106 % of control | dose: 20.0 mg/kg/injection, schedule: Q04DX003 (ip), vehicle: saline with Tween-80 108 % of control | dose: 40.0 mg/kg/injection, schedule: Q01DX009 (oral), vehicle: carboxymethylcellulose (CMC) 109 % of control | dose: 80.0 mg/kg/injection, schedule: Q01DX009 (oral), vehicle: carboxymethylcellulose (CMC) 97 % of control

Cc1ccc(NN)c(I)c1
inactive: dose: 100.0 mg/kg/injection, schedule: Q01DX001 (ip), vehicle: saline with Tween-80 97 % of control | dose: 200.0 mg/kg/injection, schedule: Q01DX001 (ip), vehicle: saline with Tween-80 93 % of control | dose: 400.0 mg/kg/injection, schedule: Q01DX001 (ip), vehicle: saline with Tween-80 95 % of control

CCOC(=O)c1[nH]c(C)c(/C=C/C(=O)O)c1C
inactive: dose: 25.0 mg/kg/injection, schedule: Q04DX003 (ip), vehicle: Klucel (hydroxypropylcellulose) (HPC) 98 % of control | dose: 50.0 mg/kg/injection, schedule: Q04DX003 (ip), vehicle: Klucel (hydroxypropylcellulose) (HPC) 95 % of control | dose: 100.0 mg/kg/injection, schedule: Q01DX001 (ip), vehicle: Klucel (hydroxypropylcellulose) (HPC) 106 % of control | [1] 101 % of control | dose: 200.0 mg/kg/injection, schedule: Q01DX001 (ip), vehicle: Klucel (hydroxypropylcellulose) (HPC) 98 % of control | dose: 400.0 mg/kg/injection, schedule: Q01DX001 (ip), vehicle: Klucel (hydroxypropylcellulose) (HPC) 98 % of control

NNC(=O)CNc1ccccc1F
inactive: dose: 25.0 mg/kg/injection, schedule: Q04DX002 (ip), vehicle: Klucel (hydroxypropylcellulose) (HPC) 113 % of control | dose: 50.0 mg/kg/injection, schedule: Q04DX002 (ip), vehicle: Klucel (hydroxypropylcellulose) (HPC) 102 % of control | [2] 102 % of control and 105 % of control

CC(C)n1cc(C(=O)c2ccccc2)cc1-c1ccccc1
inactive: dose: 100.0 mg/kg/injection, schedule: Q04DX002 (ip), vehicle: saline with Tween-80 93 % of control | dose: 200.0 mg/kg/injection, schedule: Q04DX002 (ip), vehicle: saline with Tween-80 89 % of control | dose: 400.0 mg/kg/injection, schedule: Q04DX002 (ip), vehicle: saline with Tween-80 97 % of control

O=C(Nc1ccc(S(=O)(=O)Nc2ccc(N=Nc3ccc(S(=O)(=O)Nc4nccs4)cc3)cc2)cc1)C(N1CC1)(N1CC1)N1CC1
inactive: dose: 15.0 mg/kg/injection, schedule: Q01DX001 (ip), vehicle: saline 105 % of control | dose: 30.0 mg/kg/injection, schedule: Q01DX001 (ip), vehicle: saline 105 % of control

O=C(NCCCl)Nc1cccc2c1CCC2
inactive: [1] 93 % of control | dose: 200.0 mg/kg/injection, schedule: Q04DX003 (ip), vehicle: Klucel (hydroxypropylcellulose) (HPC) 86 % of control

CC1=C(O)C(=O)C=C2C1=CC=C1[C@@]2(C)CC[C@@]2(C)[C@@H]3C[C@](C)(C(=O)O)CC[C@]3(C)CC[C@]12C
inactive: dose: 5.0 mg/kg/injection, schedule: Q01DX001 (ip), vehicle: carboxymethylcellulose (CMC) 95 % of control and 100 % of control | dose: 10.0 mg/kg/injection, schedule: Q01DX001 (ip), vehicle: carboxymethylcellulose (CMC) 97 % of control | dose: 20.0 mg/kg/injection, schedule: Q01DX001 (ip), vehicle: carboxymethylcellulose (CMC) 103 % of control and 89 % of control | dose: 40.0 mg/kg/injection, schedule: Q01DX001 (ip), vehicle: carboxymethylcellulose (CMC) 122 % of control

COc1ccc(NC(=O)/C=C/C(=O)Nc2ccc(OC)cc2)cc1
inactive: [3] 100 % of control | [4] 112 % of control | [5] 100 % of control

Brc1nc(-c2ccccc2)c(-c2ccccc2)nc1Br
inactive: [6] 96 % of control | [7] 88 % of control | [8] 88 % of control

CC(=O)OC1OC(C2COC(C)(C)O2)C2OC(C)(C)OC12 (configuration not stated)
inactive: dose: 100.0 mg/kg/injection, schedule: Q01DX001 (ip), vehicle: carboxymethylcellulose (CMC) 103 % of control | dose: 200.0 mg/kg/injection, schedule: Q01DX001 (ip), vehicle: carboxymethylcellulose (CMC) 103 % of control | dose: 400.0 mg/kg/injection, schedule: Q01DX001 (ip), vehicle: carboxymethylcellulose (CMC) 103 % of control

O=C(Nc1ccc2c(c1)OCO2)N1CC1
inactive: dose: 10.0 mg/kg/injection, schedule: Q01DX009 (ip), vehicle: Klucel (hydroxypropylcellulose) (HPC) 102 % of control | dose: 20.0 mg/kg/injection, schedule: Q01DX009 (ip), vehicle: Klucel (hydroxypropylcellulose) (HPC) 92 % of control | dose: 20.0 mg/kg/injection, schedule: Q04DX003 (ip), vehicle: Klucel (hydroxypropylcellulose) (HPC) 103 % of control | dose: 40.0 mg/kg/injection, schedule: Q04DX003 (ip), vehicle: Klucel (hydroxypropylcellulose) (HPC) 113 % of control

Cc1ccc(S(=O)(=O)N(CCCc2c(-c3ccccc3)nc(N)[nH]c2=O)c2ccccc2)cc1
inactive: dose: 100.0 mg/kg/injection, schedule: Q01DX009 (ip), vehicle: gum acacia 101 % of control | dose: 200.0 mg/kg/injection, schedule: Q01DX009 (ip), vehicle: gum acacia 100 % of control | dose: 400.0 mg/kg/injection, schedule: Q01DX009 (ip), vehicle: gum acacia 99 % of control

Cc1nc(N)c2nonc2n1
inactive: [9] 89 % of control

N#CCCS(=O)(=O)O
inactive: [6] 100 % of control | [10] 98 % of control and 122 % of control | [11] 97 % of control | [12] 95 % of control | [7] 97 % of control | [13] 98 % of control and 108 % of control | [14] 106 % of control and 90 % of control | [15] 103 % of control | [8] 105 % of control | [16] 102 % of control and 108 % of control | dose: 400.0 mg/kg/injection, schedule: Q04DX002 (ip), vehicle: saline 87 % of control and 92 % of control | [17] 97 % of control

NC(=O)C1C2C=CC(O2)C1C(N)=O (configuration not stated)
inactive: [11] 89 % of control | [14] 92 % of control

CCN(CC)C(=O)NC1CCCN1C (configuration not stated)
inactive: [10] 96 % of control | [12] 97 % of control | [13] 101 % of control | [15] 107 % of control | [16] 109 % of control | [17] 103 % of control

CCc1occ(C(=O)OC)c1C(=O)OC
inactive: [9] 96 % of control | [3] 95 % of control | dose: 200.0 mg/kg/injection, schedule: Q01DX009 (ip), vehicle: saline with Tween-80 96 % of control | [4] 94 % of control | dose: 400.0 mg/kg/injection, schedule: Q01DX009 (ip), vehicle: saline with Tween-80 100 % of control | [5] 104 % of control

NNC(=O)CNc1ccc(F)cc1Cl
inactive: [2] 101 % of control | dose: 200.0 mg/kg/injection, schedule: Q04DX002 (ip), vehicle: Klucel (hydroxypropylcellulose) (HPC) 105 % of control

CC(=O)CCCCC(=O)O
inactive: [10] 111 % of control | [12] 96 % of control | [13] 89 % of control | [15] 93 % of control | [16] 94 % of control | [17] 100 % of control
